From patent publication US20260053794A1, “SOMATOSTATIN RECEPTOR 2 AGONISTS AND USES THEREOF” (Exelixis, Inc., priority 2022, published 2026)
pEC50: −log10 of the molar value.

Molecular target: T1, Somatostatin Receptor 2 (SSTR2) (Homo sapiens, UniProt P30874)
T1 construct: expressed in transfected cells
Assay: Biochemical Assay for Activation of Somatostatin Receptor 2 (SSTR2), Cisbio HTRF cAMP assay
Assay type: cell-based
Details: average pEC50; HTRF cAMP assay in stably-transfected cell line expressing SSTR2; cells incubated with compounds for 1-2h
Description: Biochemical Assay for Activation of Somatostatin Receptor 2 (SSTR2)
Agonistic activation of SSTRs leads to an […] production of intracellular cAMP levels. Cisbio's homogeneous time-resolved fluorescence (HTRF) cAMP assay was used to measure cAMP concentration in an high-throughput format. Increase in intracellular cAMP concentrations was measuring using a stably-transfected cell line expressing SSTR2. Test compounds were dissolved in DMSO. Cells were incubated with compounds for 1-2h, and subsequently competitive binding of cAMP produced due to the activation of SSTR2 by the test compounds was measured using the Cisbio cAMP Gs dynamic assay system (Perkin Elmer, Bedford, MA).
The average pEC50 was determined for the test compounds.

T1 sequence (P30874 whole entry, species assumed): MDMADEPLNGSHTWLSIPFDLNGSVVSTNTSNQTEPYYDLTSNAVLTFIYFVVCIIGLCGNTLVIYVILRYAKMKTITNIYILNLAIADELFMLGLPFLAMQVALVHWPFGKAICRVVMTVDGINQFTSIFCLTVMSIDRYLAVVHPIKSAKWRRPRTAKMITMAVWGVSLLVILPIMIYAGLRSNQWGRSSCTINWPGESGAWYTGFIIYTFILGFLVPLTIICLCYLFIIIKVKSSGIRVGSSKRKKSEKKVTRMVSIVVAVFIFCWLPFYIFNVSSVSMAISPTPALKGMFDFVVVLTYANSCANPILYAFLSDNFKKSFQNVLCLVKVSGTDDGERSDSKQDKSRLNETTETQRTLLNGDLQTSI

| SMILES | pEC50 |
| --- | --- |
| COc1cc(F)cc(-c2cnc3[nH]c(-c4ccc5[nH]c(=O)[nH]c5c4)nc3c2N2CC[C@@H](N)[C@H](OC)C2)c1 [Compound 49] | < 5.00 |
| COc1cc(F)cc(-c2cnc3[nH]c(-c4cc(F)cc(C(N)=O)c4)nc3c2N2CC[C@@H](N)[C@H](OC)C2)c1 [Compound 50] | < 5.00 |
| COc1cc(F)cc(-c2cnc3[nH]c(-c4cccc(C#N)c4O)nc3c2N2CC[C@@H](N)[C@H](OC)C2)c1 [Compound 51] | < 5.00 |
| COc1cc(F)cc(-c2cnc3[nH]c(-c4cc(F)cc(C(=O)O)c4)nc3c2N2CC[C@@H](N)[C@H](OC)C2)c1 [Compound 52] | < 5.00 |
| CO[C@@H]1CN(c2c(-c3cc(C)cc(F)c3)cnc3[nH]c(-c4cccc(C#N)c4O)nc23)CC[C@H]1N [Compound 54] | 5.60 |
| CO[C@@H]1CN(c2c(-c3cc(C)cc(F)c3)cnc3[nH]c(-c4ccc5[nH]c(=O)[nH]c5c4)nc23)CC[C@H]1N [Compound 55] | < 5.00 |
| COc1cc(F)cc(-c2cnc3[nH]c(-c4ccc5[nH]c(=O)[nH]c5c4)nc3c2N2CCC(N)CC2)c1 [Compound 56] | 5.80 |
| COc1cc(F)cc(-c2cnc3[nH]c(-c4cccc(Br)c4O)nc3c2N2CCC(N)CC2)c1 [Compound 57] | 8.00 |
| COc1cc(F)cc(-c2cnc3[nH]c(-c4cc(F)cc(C(N)=O)c4)nc3c2N2CCC(N)CC2)c1 [Compound 58] | 6.30 |
| COc1cc(F)cc(-c2cnc3[nH]c(-c4cccc(C#N)c4O)nc3c2N2CCC(N)CC2)c1 [Compound 59] | 6.20 |
| Cc1cc(F)cc(-c2cnc3[nH]c(-c4ccc5[nH]c(=O)[nH]c5c4)nc3c2N2CCC(N)CC2)c1 [Compound 62] | 6.20 |
| Fc1cc(F)cc(-c2cnc3ccc4cc3c2N2CCC(CC2)NCCCCOc2cccc-4c2)c1 [Compound 68] | 8.10 |
| Fc1cc(F)cc(-c2cnc3ccc4cc3c2N2CCC(CC2)NCCCCCOc2cccc-4c2)c1 [Compound 69] | 8.90 |
| N#Cc1cccc2c1OCCOCCNC1CCN(CC1)c1c(-c3cc(F)cc(F)c3)cnc3ccc-2cc13 [Compound 70] | 9.10 |
| N#Cc1cccc2c1OCCCCCNC1CCN(CC1)c1c(-c3cc(F)cc(F)c3)cnc3ccc-2cc13 [Compound 71] | 9.80 |
| Cc1cc(F)cc(-c2cnc3ccc4cc3c2N2CCC(CC2)NCCCCOc2c(C#N)cccc2-4)c1 [Compound 73] | 10.60 |
| Cc1cc(F)cc(-c2cnc3ccc4cc3c2N2CCC(CC2)NCCCCOc2ccccc2-4)c1 [Compound 76] | 10.10 |
| O=C1NCCNC2CCN(CC2)c2c(-c3cc(F)cc(F)c3)cnc3ccc(cc23)-c2cccc1n2 [Compound 78, 23-(3,5-difluorophenyl)-4,7-diaza-2(6,4)-quinolina-1(2,6)-pyridina-3(1.4)-piperidina-cyclooctaphan-8-one] | 5.60 |
| O=C1NCCNC2CCN(CC2)c2c(-c3cc(F)cc(F)c3)cnc3ccc(cc23)-c2cccnc21 [Compound 79, 2^3-(3,5-difluorophenyl)-4,7-diaza-2(6,4)-quinolina-1(3,2)-pyridina-3(1,4)-piperidinacyclooctaphan-8-one] | < 5.00 |
| O=C1NCCCNC2CCN(CC2)c2c(-c3cc(F)cc(F)c3)cnc3ccc(cc23)-c2cccc1n2 [Compound 80] | 8.20 |
| O=C1NCCCCNC2CCN(CC2)c2c(-c3cc(F)cc(F)c3)cnc3ccc(cc23)-c2cccnc21 [Compound 84] | < 5.00 |
| Cc1cc(F)cc(-c2cnc3ccc4cc3c2N2CCC(CC2)NCCCNC(=O)c2ccccc2-4)c1 [Compound 86] | 5.20 |
| N#Cc1cccc2c1NCCCNC1CCN(CC1)c1c(-c3cc(F)cc(F)c3)cnc3ccc-2cc13 [Compound 93] | 6.80 |
| Cc1cc(F)cc(-c2cnc3ccc4cc3c2N2CCC(CC2)NCC(N=[N+]=[N-])CCOc2c(C#N)cccc2-4)c1 (centres unmarked) [Compound 94, 7-azido-23-(3-fluoro-5-methylphenyl)-4-oxa-9-aza-2(4.6)-quinolina-1(1.4)-piperidina-3(1,2)-benzenacyclononaphane-33-carbonitrile] | 6.80 |
| Cc1cc(F)cc(-c2cnc3ccc4cc3c2N2CCC(CC2)NCC(N)CCOc2c(C#N)cccc2-4)c1 (centres unmarked) [Compound 95, 7-amino-23-(3-fluoro-5-methylphenyl)-4-oxa-9-aza-2(4,6)-quinolina-1(1,4)-piperidina-3(1.2)-benzenacyclononaphane-33-carbonitrile] | 8.10 |
| Cc1cc(F)cc(-c2cnc(Cl)c(-c3nc4cc(F)c(F)cc4[nH]3)c2N2CCC(N)CC2)c1 [Compound 104, 1-(2-chloro-3-(5,6-difluoro-1H-benzo[d]imidazol-2-yl)-5-(3-fluoro-5-methylphenyl)pyridin-4-yl)piperidin-4-amine] | 10.10 |
| Cc1cc(C)cc(-c2cnc3c(c2N2CC[C@@H](N)C2)C(=O)N(c2cc(C)cc(C)c2)CC3)c1 [Compound 115] | 6.00 |
| Cc1cc(C)cc(-c2cnc3c(c2N2CC[C@H](N)C2)C(=O)N(c2cc(C)cc(C)c2)CC3)c1 [Compound 116] | 5.90 |

The remaining lines, values ahead:

| pEC50 | SMILES |
| --- | --- |
| 6.00 | CO[C@@H]1CN(c2c(-c3cc(C)cc(F)c3)cnc3[nH]c(-c4cc(F)cc(C(N)=O)c4)nc23)CC[C@H]1N [Compound 53] |
| 8.50 | Cc1cc(F)cc(-c2cnc3[nH]c(-c4cccc(Br)c4O)nc3c2N2CCC(N)CC2)c1 [Compound 60] |
| 7.30 | Cc1cc(F)cc(-c2cnc3[nH]c(-c4cc(F)cc(C(N)=O)c4)nc3c2N2CCC(N)CC2)c1 [Compound 61] |
| < 5.00 | CC(C)(C)OC(=O)NC1CCN(c2c(-c3cc(F)cc(F)c3)cnc3nc(-c4cccc(Br)c4O)[nH]c23)CC1 [Compound 63] |
| 7.50 | NC1CCN(c2c(-c3cc(F)cc(F)c3)cnc3nc(-c4cccc(Br)c4O)[nH]c23)CC1 [Compound 64] |
| 5.50 | NC(=O)c1cc(F)cc(-c2nc3c(N4CCC(N)CC4)c(-c4cc(F)cc(F)c4)cnc3[nH]2)c1 [Compound 65] |
| 9.10 | NC(=O)c1cccc2c1OCCCNC1CCN(CC1)c1c(-c3cc(F)cc(F)c3)cnc3ccc-2cc13 [Compound 67] |
| 9.60 | Cc1cc(F)cc(-c2cnc3ccc4cc3c2N2CCC(CC2)NCCCCOc2c(C(N)=O)cccc2-4)c1 [Compound 74] |
| 8.70 | NC(=O)c1cccc2c1OCCCCNC1CCN(CC1)c1c(-c3cc(F)cc(F)c3)cnc3ccc-2cc13 [Compound 75] |
| 8.20 | N#Cc1cccc2c1OCCO[C@H]1CN(CC[C@@H]1N)c1c(-c3cc(F)cc(F)c3)cnc3ccc-2cc13 [Compound 77] |
| 5.70 | CN1CCCCNC2CCN(CC2)c2c(-c3cc(F)cc(F)c3)cnc3ccc(cc23)-c2cccc(c2)C1=O [Compound 81, 23-(3,5-difluorophenyl)-5-methyl-5, 10-diaza-2(4, 6)-quinolina-1(1, 4)-piperidina-3(1,3)-benzenacyclodecaphan-4-one] |
| 7.60 | CN1CCCCNC2CCN(CC2)c2c(-c3cc(F)cc(F)c3)cnc3ccc(cc23)-c2cccc(n2)C1=O [Compound 82, 24-(3,5-difluorophenyl)-11-methyl-2,6,11,22,27-pentaazapentacyclo[16.6.2.2^2,^5.1^13,^17.0^21,^25]nonacosa-1(24),13(27),14,16,18(26),19,21(25),22-octaen-12-one] |
| 5.20 | CN1CCCCNC2CCN(CC2)c2c(-c3cc(F)cc(F)c3)cnc3ccc(cc23)-c2cccnc2C1=O [Compound 85] |
| 9.60 | Cc1cc(F)cc(-c2cnc3ccc4cc3c2N2CCC(CC2)NCCNC(=O)Oc2ccccc2-4)c1 [Compound 87, 23-(3-fluoro-5-methylphenyl)-4-oxa-6,9-diaza-2(4,6)-quinolina-1(1,4)-piperidina-3(1,2)-benzenacyclononaphan-5-one] |
| < 5.00 | N#Cc1cccc2c1OCCC(CO)NC1CCN(CC1)c1c(-c3cc(F)cc(F)c3)cnc3ccc-2cc13 (centres unmarked) [Compound 92] |
| < 5.00 | NCCCn1c(=O)n2c3ccccc3cc2c2cncc(-c3cc(F)cc(F)c3)c21 [Compound 105, 5-(3-aminopropyl)-4-(3,5-difluorophenyl)pyrido[4′,3′:4,5]pyrimido [1,6-a]indol-6(5H)-one] |
| 5.70 | CNCCCn1c(=O)n2c3cc(F)c(F)cc3nc2c2cncc(-c3cc(F)cc(F)c3)c21 [Compound 106, 4-(3,5-difluorophenyl)-9,10-difluoro-5-(3-(methylamino)propyl) benzo[4,5]imidazo[1,2-c]pyrido[3,4-e]pyrimidin-6(5H)-one] |
| < 7.10 | Cc1cc(F)cc(-c2cnc3c(c2N2CCC(N)CC2)-c2nc4cc(F)c(F)cc4n2CC3)c1 [Compound 107, 1-(9,10-difluoro-2-(3-fluoro-5-methylphenyl)-5,6-dihydrobenzo [4,5]imidazo[2,1-f][1,6]naphthyridin-1-yl)piperidin-4-amine] |
| 6.90 | NCCCN1Cc2ccc(F)cc2-c2cncc(-c3nc4cc(F)c(F)cc4[nH]3)c21 [Compound 108] |
| 6.70 | CC(N)CCN1Cc2ccc(F)cc2-c2cncc(C(=O)Nc3ccc(F)c(F)c3)c21 (centres unmarked) [Compound 109, 5-(3-aminobutyl)-N-(3,4-difluorophenyl)-9-fluoro-6H-benzo [c][1,6]naphthyridine-4-carboxamide] |
| 6.80 | NC1CCN(c2c(-c3cc(F)cc(F)c3)cnc3c2C(=O)N(c2ccc(F)c(F)c2)CC3)CC1 [Compound 110] |
| 7.80 | Cc1cc(F)cc(-c2cnc3c(c2N2CCC(N)CC2)C(=O)N(c2ccc(F)c(F)c2)CC3)c1 [Compound 111] |
| 7.60 | Cc1cc(C)cc(-c2cnc3c(c2N2CCC(N)CC2)C(=O)N(c2ccc(F)c(F)c2)CC3)c1 [Compound 112] |
| < 5.00 | N[C@@H]1CCN(c2c(-c3cc(F)cc(F)c3)cnc3c2C(=O)N(c2ccc(F)c(F)c2)CC3)C1 [Compound 113] |
| < 5.00 | N[C@H]1CCN(c2c(-c3cc(F)cc(F)c3)cnc3c2C(=O)N(c2ccc(F)c(F)c2)CC3)C1 [Compound 114] |
